What all share (assay type): cell-based
One assay relates to Hep G2. In words: Hep G2 in-vitro cytotoxicity assay. To be noted: Homo sapiens, HepG2, read-out: Hs HEPG2 pEC50 (converted). The method in brief:
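Hep G2 human hepatocyte carcinoma cells serve as a general mammalian cell toxicity indicator, following the Mersch-Sundermann procedure.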

A further assay relates to THP-1 cells. In words: THP-1 host cell count in intramacrophage Leishmania assay. The following applies: Homo sapiens, host cell toxicity, read-out: THP1 pEC50 (converted). How it is done:
The intramacrophage Leishmania assay was performed as described in de Rycker et al (Antimicrob Agents Chemother, 2013 July; 57(7):2913-22. doi: 10.1128/AAC.02398-12). Briefly, 1 μl of compound was pre-dispensed into 384 well sterile intermediary plates. For single point screening, amphotericin B was added to all wells of column 24 as a positive control (final concentration 2 μM) and DMSO to column 23. For potency determinations, ten-point, one in three dilution curves were created with the highest concentration being 50 μM and on each plate a control curve of amphotericin B was included. Controls were as follows: columns 11 and 12: DMSO, columns 23 and 24: amphotericin B (final concentration 2 μM). To the intermediary plates, 100 μl of THP-1 media was added and plates were shaken for >5 min to ensure complete mixing. THP-1 cells (8,000 per well, 50 μl) were plated into black clear-bottom 384 well plates (Corning) in presence of 10 nM PMA. After 20 min at room temperature, the plates were incubated at 37° C. under 5% CO2 in a humidified incubator for 75 h. The cells were then washed with […] sterile phosphate buffered saline (PBS) supplemented with 1 mM CaCl2, 0.5 mM MgCl2, 0.1% (w/v) bovine serum albumin (PBS-A) and amastigotes were added to all wells at a multiplicity of infection of 5 (40,000 amastigotes per well). After 40 min at room temperature, plates were returned to the incubator. Amastigotes were incubated in the presence of macrophages for 16 h. Any remaining extracellular amastigotes were subsequently removed with an overflow wash of 1 ml PBS-A per well (wash buffer is being aspirated from the top of the well as it is being dispensed) followed by addition of 25 μl of the compound pre-dilutions using a Matrix Hydra DT pipetting station. The final dilution of each compound was 200-fold. Plates were incubated for 72 h and then washed (250 μl PBS-A) and fixed (4% (v/v) formaldehyde-PBS, 30 min, room temperature). After fixation, the wells were washed with 250 μl PBS, stained (10 μg/ml DAPI, 0.4 μg ml-1 HCS Cellmask Deep Red in PBS+0.1% (v/v) Triton X-100, 30 min, room temperature) and washed with 250 μl PBS. Finally, PBS+0.05% (v/v) thimerosal was added to the wells, the plates were sealed and imaged on a high-content microscope (GE IN Cell 1000 or GE IN Cell 2000) using a 10× objective. Image analysis was carried out with GE IN Cell Analyzer 1000 Workstation using the “Multi Target Analysis” module. Settings for segmentation were as follows: nuclei: minimum area: 142.384 μm^2, sensitivity: 81, method: top-hat; cells: characteristic area: 2500 μm^2, sensitivity: 60, method: multiscale top-hat; organelles (amastigotes): granule size 1-3, 3 scales, sensitivity: 90, detection in entire cell. […]

Another assay concerns M. tuberculosis H37Rv. In words: In vitro inhibition of M. tuberculosis H37Rv (MIC, resazurin). To be noted: Mycobacterium tuberculosis, read-out: Mtb MIC.
Assay [1] has as its system Plasmodium falciparum strain 3D7. In words: Plasmodium falciparum 3D7 in vitro growth inhibition (SYBRgreen I). To be noted: Plasmodium falciparum, 3D7; read-out: pEC50 for Pf 3D7 (converted). The essentials:
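10-point, 1-in-3 dilution series from a top concentration of 50 μM; parasite growth read as SYBRgreen I fluorescence on double-stranded DNA (ex 485/em 528 nm). EC50 = concentration causing 50% parasite death, from at least 3 independent experiments.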

Converted amounts (≈) assume the structure as drawn.

In general, MIC refers to the least concentration at which growth counts as inhibited. In the case of `O=C(NCC1CCCCC1)c1cc(=O)c2cc(F)cc(O)c2o1` [Example 70, N-(cyclohexylmethyl)-6-fluoro-8-hydroxy-4-oxo-4H-chromene-2-carboxamide], the EC50 in the assay with Hep G2 was 31.6 µM; with THP-1 cells, 50.1 µM; in assay [1] it was 0.1 µM. Further, in the assay with M. tuberculosis H37Rv, the MIC was determined as 30 µM (≈ 9.58 µg/mL).

The values above are taken from US11485720B2, “Anti-infective agents” (University of Dundee, priority 2016, dated 2022).
